± gives the expanded uncertainty stated by the source.
Assay: excess molar enthalpy (molar enthalpy of mixing); xn = mol fraction of the nth substance listed
Settings: 298.15 K, 101 kPa, Liquid, Calvet calorimetry

CCCCCCC(C)=O [2-octanone] + CCCCCCCCCCCCCC
excess molar enthalpy (x1 = 0.0383): 0.0506 ± 0.000765 kcal/mol
excess molar enthalpy (x1 = 0.0737): 0.0908 ± 0.00124 kcal/mol
excess molar enthalpy (x1 = 0.1066): 0.123 ± 0.00163 kcal/mol
excess molar enthalpy (x1 = 0.1373): 0.15 ± 0.00194 kcal/mol
excess molar enthalpy (x1 = 0.1659): 0.173 ± 0.00222 kcal/mol
excess molar enthalpy (x1 = 0.1927): 0.191 ± 0.00239 kcal/mol
excess molar enthalpy (x1 = 0.2226): 0.209 ± 0.00263 kcal/mol
excess molar enthalpy (x1 = 0.2504): 0.223 ± 0.00287 kcal/mol
excess molar enthalpy (x1 = 0.2763): 0.235 ± 0.00311 kcal/mol
excess molar enthalpy (x1 = 0.3005): 0.244 ± 0.00311 kcal/mol
excess molar enthalpy (x1 = 0.3231): 0.252 ± 0.00311 kcal/mol
excess molar enthalpy (x1 = 0.3443): 0.258 ± 0.00335 kcal/mol
excess molar enthalpy (x1 = 0.3678): 0.263 ± 0.00335 kcal/mol
excess molar enthalpy (x1 = 0.3898): 0.267 ± 0.00335 kcal/mol
excess molar enthalpy (x1 = 0.4102): 0.27 ± 0.00335 kcal/mol
excess molar enthalpy (x1 = 0.4151): 0.273 ± 0.00335 kcal/mol
excess molar enthalpy (x1 = 0.4243): 0.274 ± 0.00359 kcal/mol
excess molar enthalpy (x1 = 0.4339): 0.275 ± 0.00359 kcal/mol
excess molar enthalpy (x1 = 0.444): 0.275 ± 0.00359 kcal/mol
excess molar enthalpy (x1 = 0.4546): 0.276 ± 0.00359 kcal/mol
excess molar enthalpy (x1 = 0.4657): 0.276 ± 0.00359 kcal/mol
excess molar enthalpy (x1 = 0.4756): 0.276 ± 0.00359 kcal/mol
excess molar enthalpy (x1 = 0.486): 0.276 ± 0.00359 kcal/mol
excess molar enthalpy (x1 = 0.4968): 0.275 ± 0.00359 kcal/mol
excess molar enthalpy (x1 = 0.5082): 0.275 ± 0.00359 kcal/mol
excess molar enthalpy (x1 = 0.52): 0.274 ± 0.00335 kcal/mol
excess molar enthalpy (x1 = 0.5304): 0.272 ± 0.00335 kcal/mol
excess molar enthalpy (x1 = 0.5412): 0.271 ± 0.00335 kcal/mol
excess molar enthalpy (x1 = 0.5525): 0.27 ± 0.00335 kcal/mol
excess molar enthalpy (x1 = 0.5643): 0.268 ± 0.00335 kcal/mol
excess molar enthalpy (x1 = 0.5765): 0.265 ± 0.00335 kcal/mol
excess molar enthalpy (x1 = 0.5893): 0.263 ± 0.00335 kcal/mol
excess molar enthalpy (x1 = 0.6004): 0.26 ± 0.00335 kcal/mol
excess molar enthalpy (x1 = 0.612): 0.257 ± 0.00335 kcal/mol
excess molar enthalpy (x1 = 0.624): 0.254 ± 0.00311 kcal/mol
excess molar enthalpy (x1 = 0.6364): 0.25 ± 0.00311 kcal/mol
excess molar enthalpy (x1 = 0.6494): 0.246 ± 0.00311 kcal/mol
excess molar enthalpy (x1 = 0.6629): 0.241 ± 0.00311 kcal/mol
excess molar enthalpy (x1 = 0.6753): 0.237 ± 0.00311 kcal/mol
excess molar enthalpy (x1 = 0.6882): 0.232 ± 0.00287 kcal/mol
excess molar enthalpy (x1 = 0.7016): 0.226 ± 0.00287 kcal/mol
excess molar enthalpy (x1 = 0.7155): 0.22 ± 0.00287 kcal/mol
excess molar enthalpy (x1 = 0.73): 0.213 ± 0.00263 kcal/mol
excess molar enthalpy (x1 = 0.7451): 0.205 ± 0.00263 kcal/mol
excess molar enthalpy (x1 = 0.7709): 0.191 ± 0.00239 kcal/mol
excess molar enthalpy (x1 = 0.7844): 0.183 ± 0.00234 kcal/mol
excess molar enthalpy (x1 = 0.7985): 0.175 ± 0.00225 kcal/mol
excess molar enthalpy (x1 = 0.8131): 0.165 ± 0.00213 kcal/mol
excess molar enthalpy (x1 = 0.8282): 0.155 ± 0.00201 kcal/mol
excess molar enthalpy (x1 = 0.8413): 0.146 ± 0.00189 kcal/mol
excess molar enthalpy (x1 = 0.8549): 0.136 ± 0.00177 kcal/mol
excess molar enthalpy (x1 = 0.8689): 0.125 ± 0.00165 kcal/mol
excess molar enthalpy (x1 = 0.8834): 0.113 ± 0.00151 kcal/mol
excess molar enthalpy (x1 = 0.8983): 0.101 ± 0.00136 kcal/mol
excess molar enthalpy (x1 = 0.9138): 0.0873 ± 0.0012 kcal/mol
excess molar enthalpy (x1 = 0.9271): 0.0752 ± 0.00105 kcal/mol
excess molar enthalpy (x1 = 0.9409): 0.0622 ± 0.000884 kcal/mol
excess molar enthalpy (x1 = 0.955): 0.0482 ± 0.000741 kcal/mol
excess molar enthalpy (x1 = 0.9695): 0.0332 ± 0.000574 kcal/mol
excess molar enthalpy (x1 = 0.9845): 0.017 ± 0.000406 kcal/mol

CCCCCCC(C)=O [2-octanone] + CCCCCCCCCCCCCCCC
excess molar enthalpy (x1 = 0.0446): 0.0598 ± 0.000884 kcal/mol
excess molar enthalpy (x1 = 0.0854): 0.107 ± 0.00143 kcal/mol
excess molar enthalpy (x1 = 0.1228): 0.144 ± 0.00189 kcal/mol
excess molar enthalpy (x1 = 0.1573): 0.175 ± 0.00225 kcal/mol
excess molar enthalpy (x1 = 0.1926): 0.202 ± 0.00263 kcal/mol
excess molar enthalpy (x1 = 0.2251): 0.223 ± 0.00287 kcal/mol
excess molar enthalpy (x1 = 0.255): 0.241 ± 0.00311 kcal/mol
excess molar enthalpy (x1 = 0.2827): 0.255 ± 0.00311 kcal/mol
excess molar enthalpy (x1 = 0.3084): 0.266 ± 0.00335 kcal/mol
excess molar enthalpy (x1 = 0.3324): 0.274 ± 0.00359 kcal/mol
excess molar enthalpy (x1 = 0.3585): 0.282 ± 0.00359 kcal/mol
excess molar enthalpy (x1 = 0.3826): 0.288 ± 0.00359 kcal/mol
excess molar enthalpy (x1 = 0.405): 0.292 ± 0.00359 kcal/mol
excess molar enthalpy (x1 = 0.4258): 0.295 ± 0.00382 kcal/mol
excess molar enthalpy (x1 = 0.448): 0.298 ± 0.00382 kcal/mol
excess molar enthalpy (x1 = 0.4685): 0.299 ± 0.00382 kcal/mol
excess molar enthalpy (x1 = 0.4876): 0.299 ± 0.00382 kcal/mol
excess molar enthalpy (x1 = 0.4933): 0.3 ± 0.00382 kcal/mol
excess molar enthalpy (x1 = 0.5044): 0.3 ± 0.00382 kcal/mol
excess molar enthalpy (x1 = 0.5161): 0.299 ± 0.00382 kcal/mol
excess molar enthalpy (x1 = 0.5282): 0.299 ± 0.00382 kcal/mol
excess molar enthalpy (x1 = 0.541): 0.298 ± 0.00382 kcal/mol
excess molar enthalpy (x1 = 0.5519): 0.297 ± 0.00382 kcal/mol
excess molar enthalpy (x1 = 0.5633): 0.295 ± 0.00382 kcal/mol
excess molar enthalpy (x1 = 0.5751): 0.294 ± 0.00359 kcal/mol
excess molar enthalpy (x1 = 0.5874): 0.291 ± 0.00359 kcal/mol
excess molar enthalpy (x1 = 0.6003): 0.289 ± 0.00359 kcal/mol
excess molar enthalpy (x1 = 0.6138): 0.286 ± 0.00359 kcal/mol
excess molar enthalpy (x1 = 0.6257): 0.283 ± 0.00359 kcal/mol
excess molar enthalpy (x1 = 0.6508): 0.275 ± 0.00359 kcal/mol
excess molar enthalpy (x1 = 0.6642): 0.27 ± 0.00335 kcal/mol
excess molar enthalpy (x1 = 0.6781): 0.265 ± 0.00335 kcal/mol
excess molar enthalpy (x1 = 0.6926): 0.259 ± 0.00335 kcal/mol
excess molar enthalpy (x1 = 0.7048): 0.254 ± 0.00311 kcal/mol
excess molar enthalpy (x1 = 0.7174): 0.248 ± 0.00311 kcal/mol
excess molar enthalpy (x1 = 0.737): 0.241 ± 0.00311 kcal/mol
excess molar enthalpy (x1 = 0.7443): 0.234 ± 0.00287 kcal/mol
excess molar enthalpy (x1 = 0.7583): 0.226 ± 0.00287 kcal/mol
excess molar enthalpy (x1 = 0.7732): 0.217 ± 0.00287 kcal/mol
excess molar enthalpy (x1 = 0.7861): 0.209 ± 0.00263 kcal/mol
excess molar enthalpy (x1 = 0.7993): 0.2 ± 0.00263 kcal/mol
excess molar enthalpy (x1 = 0.8131): 0.19 ± 0.00239 kcal/mol
excess molar enthalpy (x1 = 0.8273): 0.18 ± 0.00232 kcal/mol
excess molar enthalpy (x1 = 0.84): 0.17 ± 0.0022 kcal/mol
excess molar enthalpy (x1 = 0.8531): 0.159 ± 0.00206 kcal/mol
excess molar enthalpy (x1 = 0.8666): 0.148 ± 0.00191 kcal/mol
excess molar enthalpy (x1 = 0.8805): 0.135 ± 0.00177 kcal/mol
excess molar enthalpy (x1 = 0.8949): 0.122 ± 0.0016 kcal/mol
excess molar enthalpy (x1 = 0.9075): 0.109 ± 0.00146 kcal/mol
excess molar enthalpy (x1 = 0.9204): 0.0961 ± 0.00129 kcal/mol
excess molar enthalpy (x1 = 0.9337): 0.0819 ± 0.00112 kcal/mol
excess molar enthalpy (x1 = 0.9473): 0.0667 ± 0.000956 kcal/mol
excess molar enthalpy (x1 = 0.9614): 0.0499 ± 0.000765 kcal/mol
excess molar enthalpy (x1 = 0.9739): 0.0346 ± 0.000598 kcal/mol
excess molar enthalpy (x1 = 0.9868): 0.0177 ± 0.00043 kcal/mol

— the NIST ThermoML archive (doi:10.1021/je900311v)
